For data set [1] the following is noted: cited from earlier work.
For data set [2] the following is noted: cited from earlier work. This is another data set of the same source.
The conditions of data set [3]: 1 gm at the end of the surgery; 405 abdominal surgery patients; cited from earlier work.
Data set [4] concerns platelet aggregation induced by ADP, epinephrine and collagen. The settings on record: cited from earlier work.
The subject of the next data set is platelet function. Put plainly: Bleeding time and bleeding area before and after tumescent lidocaine exposure (preliminary experiment). The format is in vivo, human. On the procedure: The skin of the left and right thigh of a subject is cleaned and allowed to dry. […] Simultaneous 4 mm deep puncture wounds are made to the same area of the left and right thighs with disposable lancets. The puncture sites are blotted with filter paper every 30 seconds, until bleeding stops and the bleeding time for each thigh is recorded. The bleeding times of the left and right thigh are compared to determine if administration of TLAnti increases bleeding time. Normal bleeding time measured by the Duke method is 1 to 3 minutes.
In a preliminary experiment, bleeding time and bleeding area were measured in a patient before and after tumescent lidocaine exposure. […] In contrast, there was a 40% increase in Average Bleeding Area (BA). Bleeding Area (BA) was a more sensitive and a more specific test for platelet function compared to Bleeding Time (BT). […] In otherwords, TAD may reduce the risk of both post-operative surgical site infection and post-operative thromboembolism.

The conditions of data set [5]: cited from earlier work. The source holds these as a separate data set.
The test system of data set [6] is Staphyloccus aureus (MRSA) ATCC 33592. Put plainly: Minimum Bactericidal Concentration (MBC). The format is cell-based, Staphylococcus aureus. The source says:
Determinations of MBC followed the method described in “Report on the Working Party on Antibiotic Sensitivity Testing of the British Society of Antimicrobial Chemotherapy: A Guide to Sensitivity Testing.”

The test system is the same in data set [7]. Put plainly: Minimum Inhibitory Concentration (MIC). The conditions noted are these: Staphylococcus aureus.
Method: Following inoculation, survival of test microorganisms was determined.
For the next data set, the system named is S. aureus. The conditions noted are these: effect increases with greater duration of exposure; cited from earlier work.
For data set [8] the following is noted: routine local anesthesia with lidocaine; cited from earlier work.
The next data set can be described thus: clinical. The conditions noted are these: human, in vivo. The protocol: A clinical pharmacologic investigation was conducted to compare the pharmacokinetic advantages of two modes of systemic antibiotic delivery, Tumescent antibiotic delivery (TAD), which involves the delivery of a relatively large volume of an antibiotic-containing solution to the subcutaneous compartment, and intravenous antibiotic delivery (IVAD), which results in direct delivery of antibiotics to the blood stream, for prophylaxis of SSI.
With Institutional Review Board (IRB) approval, the absorption pharmacokinetics of tumescent antibiotic delivery (TAD) and intravenous antibiotic delivery (IVAD) were tested in human subjects and the antibiotic delivery modes were evaluated with respect to the area under the curve (AUC) of antibiotic concentration as a function of time and peak antibiotic concentration (Cmax) in serum and TISF. 4 female subjects participated in at least one study, one subject volunteered for 2 separate studies. 5 studies were conducted: 3 involved TAD to the abdomen, 1 involved TAD to the hips and outer thighs and 1 involved TAD to the breasts. […] Each of the 5 studies consisted of 2 to 3 pharmacokinetic procedures, for a total of 14 procedures. Any procedures conducted on an individual subject were separated by at least one week. In 13 procedures only IVAD or TAD, was used. In one procedure both IVAD and TAD were used concurrently, with IVAD started and finished within five minutes after completing TAD.
TAD was conducted as described herein. Following TAD, sequential 10 ml samples of tumescent adipose tissue were obtained using a hand-held syringe-liposuction technique. Sampling began immediately after completing the TAD infiltration (T0), and continuing until the patients reported significant discomfort. Liposuction aspirate samples were obtained at 0, 1, 2, 3, 4, 6, and 8 hours in all procedures; in 4 TAD procedures, sampling continued until 10 hours. Sequential serum samples for measurement of antibiotic concentration in serum after TAD ([Serum]TAD) were obtained simultaneously.
For IVAD, the antibiotic was delivered into an antecubital vein. Following IVAD, serum samples were taken from the contralateral arm via an indwelling venous catheter beginning immediately after completion of the antibiotic delivery (T0).
The samples of liposuction aspirate were centrifuged to obtain infranatant TISF, which comprises minimally blood-tinged tissue-free residual tumescent solution.
AUC (Area Under the Curve) of drug concentration as a function of time, a metric for measuring the cumulative exposure to an individual drug within a specified tissue, was estimated for time T0 to time Tn using the trapezoid rule: […]

[9] abbreviates: after vs before tumescent lidocaine exposure.
Where [10] appears, read: post-op tumescent lidocaine exposure, Pt# 1, tests T3, T4.

Molecules are shown by their SMILES. In brackets after ≈: the same amount, converted by molar mass. Several values for one entry are separate records, joined by “and”; a condition that tells them apart may be missing. Identical values can stand only once. Like-named read-outs stand apart in the source and are kept apart here.

The term MIC denotes the smallest concentration in the dilution series that meets the test's criterion for growth inhibition. Low readings indicate a more susceptible organism, high ones a less susceptible organism. In general, AUC refers to concentration integrated over time. The low end stands for less exposure, the high end for more exposure.

Regarding `CO[C@@]1(NC(=O)Cc2cccs2)C(=O)N2C(C(=O)O)=C(COC(N)=O)CS[C@@H]21` [cefoxitin], the entries for the “subjects with penetration P=AUC[ISF]IVAD/AUC[SERUM]IVAD less than 0.1” value in data set [1] (normal controls) and in data set [1] (obese subjects) were 3/10 and 8/10, respectively. In addition, the “Penetration PR” value in data set [1] (normal weight volunteers, microdialysis) is 0.37±0.26. For the same compound, the “degree of antibiotic penetration into ISF relative to normal weight subjects” value in data set [1] (obese patients) is on record as 22%. In addition, the protein binding result in data set [2] was “approximately 72%”.

Turning to `O=C(Cc1cccs1)N[C@@H]1C(=O)N2C(C(=O)[O-])=C(C[n+]3ccccc3)CS[C@H]12` [cephaloridine], the “incidence of wound infection, intravenous vs intra incisional” value in [3] is reported as “no significant difference”.

Take `CCOC(=O)c1ccc(N)cc1` [benzocaine]: in data set [4], the “platelet aggregation induced by ADP” value is recorded as “inhibit”.

Consider `CCN(CC)CC(=O)Nc1c(C)cccc1C` [Lidocaine], for which the “change in Average Bleeding Time (BT)” value with platelet function (setting [9]) is on record as “essentially no change”. Besides, the “increase in Average Bleeding Area (BA)” value with platelet function (setting [9]) is listed as 40%. In the data set on platelet function (post-op tumescent lidocaine exposure, Control BA = 541), the “Lidocaine BA (Average Bleeding Area)” value is recorded as “BA = 759”. Moreover, the “Lidocaine BT (Average Bleeding Time)” value in the data set on platelet function (post-op tumescent lidocaine exposure, Control BT = 6) is “BT = 5.75”. Besides, the “Bleeding Area BA” value with platelet function (setting [10]) is 791.81 and 726.03. Besides, the “Bleeding Time BT × 2” value in the data set with platelet function (setting [10]) is 10 and 13. The “dosage limitation approved by the FDA for infiltration local anesthesia” value in data set [5] (commercial lidocaine (1%=10 gm/L) with epinephrine (1:100,000=10 mg/L)) was 7 mg/kg. Further, in data set [5] (tumescent lidocaine, TLA without liposuction, adults), the “maximum safe mg/kg dosage (estimated)” value was approximately 30 mg/kg. For the same compound, the “lidocaine concentration that consistently inhibits in-vitro platelet aggregation” value in data set [4] (aggregation induced by ADP, epinephrine and collagen) was not below 0.5 mg/mL. The “effect on platelet aggregation” value in [4] (at safe systemic concentrations (e.g. ≤6 micrograms/ml)) is recorded as “no effect”. The “platelet aggregation induced by ADP” value in [4] is listed as “inhibit”. Also, the “MRSA growth (MBC test)” value is recorded as “+” in [6] (Day 1, Lidocaine 1,000 mg/L, MRSA inoculum 4.7 × 10^5 CFU/ml); “+” in [6] (Day 2, Lidocaine 1,000 mg/L, MRSA inoculum 4.4 × 10^5 CFU/ml); “+” in data set [6] (Day 2, Lidocaine 5,000 mg/L, MRSA inoculum 4.4 × 10^5 CFU/ml); 0 in data set [6] (Day 2, Lidocaine 10,000 mg/L, MRSA inoculum 4.4 × 10^5 CFU/ml). The MIC in data set [7] was approximately 5000 µg/mL (≈ 21.3 mM). The “bactericidal activity in vitro” value in the data set on S. aureus is recorded as “bactericidal”. For the same compound, the “duration of local anesthesia” value in data set [8] was approximately 2 h.

In the case of `Cc1ncc([N+](=O)[O-])n1CCO` [Metronidazole], the “interval in which serum concentration of metronidazole exceeded 4 μg/ml” value in the data set “clinical” (female) fell in the range of 0 to 12 h. The “interval in which serum concentration of metronidazole exceeds 4 μg/ml” value in “clinical” (female) is 0 to 12 h. Besides, the AUC was determined as 122 µg·h/mL in “clinical” (female, 500 mg, AUC[Serum]IVAD, metronidazole, Study 4, IVAD dose 500 mg); 67 µg·h/mL in “clinical” (female, 500 mg, AUC[Serum]TAD); 2600 µg·h/mL in “clinical” (female, 500 mg, AUC[TISF]TAD); 127 µg·h/mL in the data set “clinical” (female, 600 mg, AUC[Serum]IVAD, metronidazole, Study 5, IVAD dose 600 mg); 81 µg·h/mL in “clinical” (female, 600 mg, AUC[Serum]TAD); 1030 µg·h/mL in the data set “clinical” (female, 600 mg, AUC[TISF]TAD, metronidazole, Study 5 (Abdomen) TAD1: 600 mg, 172 mg/L in TAD). Also, the “ER3 = ER1/ER2 = AUC[TISF]TAD/AUC[Serum]TAD” value in “clinical” (500 mg) was 38.8; in the data set “clinical” (600 mg), 12.7.

Take `CCCCN1CCCCC1C(=O)Nc1c(C)cccc1C` (stereo not drawn) [bupivacaine]: the “platelet aggregation induced by ADP” value in [4] is “inhibit”.

On to `Cc1nnc(SCC2=C(C(=O)O)N3C(=O)[C@@H](NC(=O)Cn4cnnn4)[C@H]3SC2)s1` [Cefazolin], for which the “MRSA growth (MBC test)” value in data set [6] (Day 1, Cefazolin 62.5 mg/L, MRSA inoculum 4.7 × 10^5 CFU/ml) is listed as “+”; in [6] (Day 1, Cefazolin 125 mg/L, MRSA inoculum 4.7 × 10^5 CFU/ml) it was “+”; in [6] (Day 1, Cefazolin 250 mg/L, MRSA inoculum 4.7 × 10^5 CFU/ml), 0; in data set [6] (Day 2, Cefazolin 62.5 mg/L, MRSA inoculum 4.4 × 10^5 CFU/ml), “+”; in [6] (Day 2, Cefazolin 125 mg/L, MRSA inoculum 4.4 × 10^5 CFU/ml) it was “+”; in data set [6] (Day 2, Cefazolin 250 mg/L, MRSA inoculum 4.4 × 10^5 CFU/ml) it was 0.

(Values after patent publication US11213481B2, “Tumescent drug delivery” (priority 2004, dated 2022).)
